This note sets out measurements from patent US20160201063A1, “EPIGENETIC REGULATORS OF FRATAXIN” (RANA THERAPEUTICS, INC., priority 2013, published 2016).

Experiment [1] has as its system FXN mRNA. The experiment in a line: Screen of epigenetic inhibitors in GM0321 normal fibroblasts, FXN RNA levels. The experiment is classed as cell-based, human. Conditions: for fold induction at 1 µM / fold induction at 5 µM: Homo sapiens, Fibroblast, 72 h; for fold induction at 1 µM: read-out: FXN mRNA fold change, 321B 1 uM; for fold induction at 5 µM: read-out: FXN mRNA fold change, 321B 5 uM.

Experiment [2] relates to FXN mRNA. The experiment in a line: Screen of library of eighty epigenetic inhibitors in GM03816 FRDA diseased fibroblasts, FXN mRNA fold change. Format: cell-based, human. Conditions: for fold induction at 1 µM / fold induction at 5 µM: Homo sapiens, Fibroblast, 72 h; for fold induction at 1 µM: read-out: 3816 1 uM (FXN mRNA fold change); for fold induction at 5 µM: read-out: 3816 5 uM (FXN mRNA fold change). How it is done: FXN RNA levels are indicated on the y-axis and the inhibitors used at both 1 μM and 5 μM are shown on the x-axis.
A screen of a library of eighty epigenetic inhibitors (Cayman Chemical) was performed in GM03816 FRDA fibroblasts to identify epigenetic regulators that upregulate FXN expression.

Setting [3] is: GM0321 normal fibroblasts, 1 uM inhibitor, 3 days of treatment.
[4] abbreviates: GM0321 normal fibroblasts, 5 uM inhibitor, 3 days of treatment.
Where [5] appears, read: GM03816 FRDA diseased fibroblasts, 1 uM inhibitor, 3 days of treatment.
The mark [6] stands for this setting: GM03816 FRDA diseased fibroblasts, 5 uM inhibitor, 3 days of treatment.

Take `CCOC(=O)CCNc1cc(N2CCc3ccccc3CC2)nc(-c2cccnc2)n1.Cl` [GSK-J5 (hydrochloride)]: in experiment [1] (setting [3]), the “FXN mRNA fold change, 321B 1 uM” value is 0.8597. Moreover, the “FXN mRNA fold change, 321B 5 uM” value in experiment [1] (setting [4]) came out at 0.9741. For the same molecule, the “3816 1 uM (FXN mRNA fold change)” value in experiment [2] (setting [5]) is 1.183. Also, in experiment [2] (setting [6]), the “3816 5 uM (FXN mRNA fold change)” value was found to be 0.9451.
Take `C=C(C)[C@@H](CC=C(C)C)C[C@@]12C[C@@H](CC=C(C)C)C(C)(C)[C@@](CC=C(C)C)(C(=O)C(C(=O)c3ccc(O)c(O)c3)=C1O)C2=O` [Garcinol]: the fold induction at 1 µM came to 0.63 in experiment [1] (setting [3]) and 1.01 in experiment [2] (setting [5]). For the same molecule, the figures for the fold induction at 5 µM in experiment [1] (setting [4]) and in experiment [2] (setting [6]) were 1.33 and 1.09, respectively.
On to `O=C(O)c1ccc(O)c2ncccc12` [IOX1], for which, in experiment [1] (setting [3]), the “FXN mRNA fold change, 321B 1 uM” value is reported as 0.9479. Moreover, the “FXN mRNA fold change, 321B 5 uM” value in experiment [1] (setting [4]) is recorded as 0.7185. Moreover, the “3816 1 uM (FXN mRNA fold change)” value in experiment [2] (setting [5]) is 1.272. Further, the “3816 5 uM (FXN mRNA fold change)” value in experiment [2] (setting [6]) is given as 0.8722.
For `O=C(/C=C/c1ccc(O)cc1)c1ccc(O)cc1O` [Isoliquiritigenin], the fold induction at 1 µM in experiment [1] (setting [3]) was 1.16; in experiment [2] (setting [5]), 1.27. Moreover, the fold induction at 5 µM in experiment [1] (setting [4]) is 1.29; in experiment [2] (setting [6]), 0.963.
Regarding `O=C(NCc1ccccc1)c1c(/N=C/c2c(O)ccc3ccccc23)sc2c1CCCC2` [JGB1741], the “FXN mRNA fold change, 321B 1 uM” value in experiment [1] (setting [3]) was determined as 0.9963. In addition, the “FXN mRNA fold change, 321B 5 uM” value in experiment [1] (setting [4]) worked out at 0.7224. The “3816 1 uM (FXN mRNA fold change)” value in experiment [2] (setting [5]) is 1.006. Further, in experiment [2] (setting [6]), the “3816 5 uM (FXN mRNA fold change)” value is recorded as 1.17.
`Nc1ccccc1NC(=O)c1ccc(CNC(=O)OCc2cccnc2)cc1` [MS-275]: in experiment [1] (setting [4]), the “FXN mRNA fold change, 321B 5 uM” value is recorded as 0.2713. In experiment [2] (setting [5]), the “3816 1 uM (FXN mRNA fold change)” value is given as 0.2266. In addition, in experiment [2] (setting [6]), the “3816 5 uM (FXN mRNA fold change)” value was 0.2333.
As for `N=C1NC(=O)/C(=C/c2ccc(O)cc2)S1` [Mirin], the fold induction at 1 µM in experiment [1] was 1.08; in experiment [2], 1.06. In addition, the figures for the fold induction at 5 µM in experiment [1] and in experiment [2] were 1.31 and 0.679, respectively.
In the case of `O=C(O)CNC(=O)C(=O)O` [N-Oxalylglycine], the fold induction at 5 µM in experiment [1] (setting [4]) is 0.68; in experiment [2] (setting [6]) it was 1.03. For the same molecule, the fold induction at 1 µM in experiment [2] (setting [5]) amounted to 0.708.
`NC(=O)c1cccnc1` [Nicotinamide]: the fold induction at 1 µM in experiment [1] (setting [3]) stood at 0.687; in experiment [2] (setting [5]), 0.852. The fold induction at 5 µM in experiment [1] (setting [4]) turned out to be 0.702; in experiment [2] (setting [6]), 0.775.
For `O=C(CCCCCCC(=O)Nc1ccc(I)cc1)NO` [Oligo 4-iodo-SAHA], the “FXN mRNA fold change, 321B 1 uM” value in experiment [1] (setting [3]) was 0.668. Moreover, in experiment [1] (setting [4]), the “FXN mRNA fold change, 321B 5 uM” value was 0.5901. Besides, the “3816 1 uM (FXN mRNA fold change)” value in experiment [2] (setting [5]) turned out to be 0.6878. For the same molecule, in experiment [2] (setting [6]), the “3816 5 uM (FXN mRNA fold change)” value turned out to be 0.1302.
For the molecule `COc1ccc(Cn2ccc3ccc(C(=O)NO)cc32)cc1` [PCI 34051], the “FXN mRNA fold change, 321B 1 uM” value in experiment [1] (setting [3]) turned out to be 0.9743. Besides, in experiment [1] (setting [4]), the “FXN mRNA fold change, 321B 5 uM” value came to 1.306. The “3816 1 uM (FXN mRNA fold change)” value in experiment [2] (setting [5]) amounted to 1.084. Moreover, the “3816 5 uM (FXN mRNA fold change)” value in experiment [2] (setting [6]) is on record as 1.209.
The matching figures for `COc1ccccc1S(=O)(=O)Nc1ccc2c(c1)CN(C)C(=O)N2` [PFI-1]: 0.9577, 0.9071, 0.9175 and 0.923.
In the same order, the values of `Oc1cc(O)cc(/C=C/c2ccc(O)c(O)c2)c1` [Picetannol] are 0.5008, 0.538, 0.7867 and 0.5435.
The matching figures for `Cc1ccc(NC(=O)CCCCCC(=O)Nc2ccccc2N)cc1` [Pimelic Diphenylamide 106]: 0.694, 0.2094, 0.7457 and 0.4858.
As for `O=C(O)C(Cc1c[nH]c2ccccc12)N1C(=O)c2ccccc2C1=O` (stereo not drawn) [RG-108], the “FXN mRNA fold change, 321B 5 uM” value in experiment [1] (setting [4]) came out at 0.6222. Further, the “3816 1 uM (FXN mRNA fold change)” value in experiment [2] (setting [5]) is 1.001. In addition, the “3816 5 uM (FXN mRNA fold change)” value in experiment [2] (setting [6]) is recorded as 0.8966.
On to `Nc1ncnc2c1ncn2[C@@H]1O[C@H](CSCC[C@H](N)C(=O)O)[C@@H](O)[C@H]1O` [S-Adenosylhomocysteine], for which the figures for the fold induction at 1 µM in experiment [1] (setting [3]) and in experiment [2] (setting [5]) were 0.975 and 1.07, respectively. For the same molecule, the fold induction at 5 µM in experiment [1] (setting [4]) was found to be 0.619; in experiment [2] (setting [6]), 0.886.
As for `O=C(CCCCCCC(=O)Nc1ccccc1)NO` [SAHA], in experiment [1] (setting [3]), the “FXN mRNA fold change, 321B 1 uM” value came to 0.4256. Moreover, the “FXN mRNA fold change, 321B 5 uM” value in experiment [1] (setting [4]) is 0.1923. Also, the “3816 1 uM (FXN mRNA fold change)” value in experiment [2] (setting [5]) stood at 0.4857. Further, the “3816 5 uM (FXN mRNA fold change)” value in experiment [2] (setting [6]) is given as 0.0916.
Consider `CCCCc1nc2cc(/C=C/C(=O)NO)ccc2n1CCN(CC)CC` [SB 939], for which the fold induction at 1 µM in experiment [1] (setting [3]) turned out to be 0.435; in experiment [2] (setting [5]), 0.298. Further, the fold induction at 5 µM stood at 0.465 in experiment [1] (setting [4]) and 0.315 in experiment [2] (setting [6]).
For the molecule `CC(C(=O)Nc1cccc(/N=C/c2c(O)ccc3ccccc23)c1)c1ccccc1` (stereo not drawn) [Salermide], the fold induction at 1 µM in experiment [1] (setting [3]) is 1.06; in experiment [2] (setting [5]), 1.16. The values for the fold induction at 5 µM in experiment [1] (setting [4]) and in experiment [2] (setting [6]) were 0.815 and 0.996, respectively.
With `Nc1ncnc2c1ncn2[C@@H]1O[C@H](C[C@@H](N)CC[C@H](N)C(=O)O)[C@@H](O)[C@H]1O` [Sinefungin, reference compound], the results for the fold induction at 1 µM in experiment [1] (setting [3]) and in experiment [2] (setting [5]) were 0.551 and 0.895, respectively. Moreover, the fold induction at 5 µM in experiment [1] (setting [4]) amounted to 0.821; in experiment [2] (setting [6]) it was 0.862.
In the same order, the values of `CC(NC(=O)c1ccccc1/N=C/c1c(O)ccc2ccccc12)c1ccccc1` (stereo not drawn) [Sirtinol] are 0.81, 1.06, 1.02 and 0.92.
`CCCC(=O)[O-].[Na+]` [Sodium Butyrate]: the figures for the fold induction at 1 µM in experiment [1] and in experiment [2] were 1.06 and 1.03, respectively. For the same molecule, the fold induction at 5 µM is 0.707 in experiment [1] and 1.16 in experiment [2].
For `O=C1CCc2c(ccc3ccccc23)O1` [Splitomicin], the fold induction at 1 µM was 1.08 in experiment [1] (setting [3]) and 0.957 in experiment [2] (setting [5]). For the same molecule, the fold induction at 5 µM was 1.01 in experiment [1] (setting [4]) and 0.939 in experiment [2] (setting [6]).
In the same order, the values of `O=C(CCCCCCC(=O)NO)NO` [Suberohydroxamic Acid] are 0.959, 1.18, 1.02 and 0.982.
Regarding `Cc1ccc(C(=O)Nc2ccc(S(=O)(=O)O)c3cc(S(=O)(=O)O)cc(S(=O)(=O)O)c23)cc1NC(=O)c1cccc(NC(=O)Nc2cccc(C(=O)Nc3cc(C(=O)Nc4ccc(S(=O)(=O)O)c5cc(S(=O)(=O)O)cc(S(=O)(=O)O)c45)ccc3C)c2)c1` [Suramin], the fold induction at 5 µM stood at 0.772 in experiment [1] and 0.835 in experiment [2]. In addition, in experiment [2], the fold induction at 1 µM came to 0.954.
`CC(/C=C/C(=O)NO)=C\[C@@H](C)C(=O)c1ccc(N(C)C)cc1` [Trichostatin A]: in experiment [1] (setting [3]), the “FXN mRNA fold change, 321B 1 uM” value was 1.023. In experiment [1] (setting [4]), the “FXN mRNA fold change, 321B 5 uM” value was determined as 0.7721. Further, the “3816 1 uM (FXN mRNA fold change)” value in experiment [2] (setting [5]) was found to be 0.9338. Moreover, the “3816 5 uM (FXN mRNA fold change)” value in experiment [2] (setting [6]) turned out to be 0.6921.
In the same order, the values of `CN1CCc2c(c3ccccc3n2Cc2ccc(C(=O)NO)cc2)C1` [Tubastatin A] are 0.8993, 1.038, 0.9276 and 0.9192.
With `COc1cc2c(NC3CCN(C)CC3)nc(N3CCCN(C)CC3)nc2cc1OCCCN(C)C` [UNC0224, 7-[3-(Dimethylamino)propoxy]-2-(hexahydro-4-methyl-1H-1,4-diazepin-1-yl)-6-methoxy-N-(1-methyl-4-piperidinyl)-4-quinazolinamine, reference compound], the fold induction at 1 µM in experiment [1] (setting [3]) was found to be 0.876; in experiment [2] (setting [5]), 0.958. For the same molecule, the fold induction at 5 µM is 0.875 in experiment [1] (setting [4]) and 0.656 in experiment [2] (setting [6]).
The matching figures for `COc1cc2c(NC3CCN(C(C)C)CC3)nc(C3CCCCC3)nc2cc1OCCCN1CCCC1` [UNC0638, 2-Cyclohexyl-6-methoxy-N-[1-(1-methylethyl)-4-piperidinyl]-7-[3-(1-pyrrolidinyl)propoxy]-4-quinazolinamine, reference compound]: 1.09, 1.27, 1.02 and 1.17.
In the same order, the values of `CCCC(CCC)C(=O)O` [Valproic acid] are 1.26, 0.901, 0.847 and 1.
Take `O=c1ncccn1[C@@H]1O[C@H](CO)[C@@H](O)[C@H]1O` [Zebularine]: the fold induction at 1 µM in experiment [1] (setting [3]) and in experiment [2] (setting [5]) was 1.07 throughout. Moreover, the results for the fold induction at 5 µM in experiment [1] (setting [4]) and in experiment [2] (setting [6]) were 1.03 and 1.09, respectively.
